Measurements reported in paper PMC7926352, “Synthesis, Characterization and In Vitro Evaluation of Novel 5-Ene-thiazolo[3,2-b][1,2,4]triazole-6(5H)-ones as Possible Anticancer Agents” (Molecules, 2021).
Read-outs that look alike come from different tables or passages of the source.

How the values were obtained:
[1] = tested on: Leukemia cell lines
[2] = tested on: T-47D; type: cell-based; conditions: Breast Cancer; for CC50: read-out: LC50 (the source's name)
[3] = tested on: SK-MEL-28
[4] = tested on: COLO 205; type: cell-based; conditions: COLO 205, Colon cancer; for CC50: read-out: LC50 (the source's name)
[5] = tested on: HT29
[6] = tested on: BT-549
[7] = tested on: SR
[8] = tested on: HCT-15
[9] = tested on: TK-10
[10] = tested on: HOP-62
[11] = tested on: Renal Cancer cell lines
[12] = tested on: panel of approximately sixty human tumor cell lines; assay: NCI-60 human tumor cell lines screen (SRB), full panel; type: cell-based; conditions: for GI50: read-out: GI50, Total MG_MID; for Positive Cytostatic Effect: ratio of number of cell lines with percent growth from 0 to 50 to total number of cell lines
Experimental: Compounds 2a, 2c–f, 2h–l, 3, 5e, 5f were selected for antitumor activity which was performed according to the standard protocols of National Cancer Institute (NCI, Bethesda, MD, USA) Developmental Therapeutic Program (DTP). At the prescreening stage, the compounds were evaluated for antitumor activity at the concentration of 10 µM against a panel of approximately sixty cancer cell lines representing different types of cancer including leukemia, melanoma, lung, colon, CNS, ovarian, renal, prostate and breast cancers.
Among them, three compounds (2d, 2h, 2i) presented excellent cytotoxic and four derivatives (2d, 2h, 2i, 2k) cytostatic properties in one or more cell lines when applied at a concentration of 10 µM. […] The outcomes were calculated and presented in the form of three response parameters (GI50, TGI and LC50) for each cell line via growth percentage inhibition curves. […]
The primary anticancer assay was performed on a panel of approximately sixty human tumor cell lines derived from nine neoplastic diseases (leukemia, melanoma, lung, colon, CNS, ovarian, renal, prostate, and breast cancers), in accordance with the protocol of the National Cancer Institute Drug Evaluation Branch (Bethesda, MD, USA). Tested compounds were added to the culture at a single concentration (10^−5 M) and the cultures were incubated for 48 h. End-point determinations were made with a protein-binding dye, sulforhodamine B (SRB). Results for each tested compound were reported as the percentage of the growth of the treated cells when compared to the untreated control cells. The percentage of the growth was evaluated spectrophotometrically versus controls not treated with test agents. […] Using absorbance measurements [time zero (Tz), control growth in the absence of drug (C), and test growth in the presence of the drug (Ti)], the percentage growth was calculated for each drug concentration. Percentage growth inhibition was calculated as:[(Ti − Tz)/[…]] × 100(1) for concentrations for which Ti ≥ Tz, [(Ti − Tz)/Tz] × 100 for concentrations for which Ti < Tz. Dose-response parameters (GI50, TGI) were calculated for each compound. Growth inhibition of 50% (GI50) was calculated from [(Ti − Tz)/(C − Tz)] × 100 = 50, which is the drug concentration resulting in a 50% lower net protein increase in the treated cells (measured by SRB staining) as compared to the net protein increase seen in the control cells. The drug concentration resulting in total growth inhibition (TGI) was calculated from Ti = Tz. Values were calculated for each of these parameters if the level of activity was reached; however, if the effect was not reached or was excessive, the value for that parameter was expressed as more or less than the maximum or minimum concentration tested. The lowest values were obtained with the most sensitive cell lines. Compounds having GI50 values ≤ 100 μM were declared to be active. The selectivity index (SI) calculated by dividing the full panel MG_MID (full-panel mean-graph midpoint) (μM) of the compounds 2h and 2i by their individual subpanel MG_MID of a cell line (μM) was considered as a measure of compounds’ selectivity. Ratios between 3 and 6 mean moderate selectivity, ratios greater than 6 indicate high selectivity toward the corresponding cell line, while compounds not meeting either of these criteria are rated nonselective.

[13] = tested on: DU-145
[14] = tested on: Melanoma cell lines
[15] = tested on: SNB-75
[16] = tested on: UACC-62
[17] = tested on: 786-0
[18] = tested on: UO-31
[19] = tested on: NCI-H522
[20] = tested on: MDA-MB-435
[21] = tested on: SK-MEL-28; remark: listed apart in the source
[22] = tested on: LOX IMVI
[23] = Homo sapiens, read-out: GI50, panel MG_MID
[24] = Homo sapiens, read-out: GI50, values range inside panel
[25] = Homo sapiens, read-out: LC50, panel MG_MID
[26] = Homo sapiens, read-out: LC50, values range inside panel
[27] = 60 cell lines assay in one dose, 10 μM, 48 h

Compound: O=C(COc1ccc(Cl)cc1/C=c1\sc2ncnn2c1=O)Nc1ccc(Cl)cc1 [Compound 2h, (Z)-2-(4-Chloro-2-((6-oxothiazolo[3,2-b][1,2,4]triazol-5(6H)-ylidene)methyl)phenoxy)-N-(4-chlorophenyl)acetamide]
- GI50 [1, 23]: 1.92 µM
- GI50 [1, 24]: 1.35 to 2.69 µM
- CC50 [1, 25]: 26.8 µM
- CC50 [1, 26]: 7.58 to 49 µM
- TGI, panel MG_MID ([1]; Leukemia subpanel): 6.85 µM
- TGI, values range inside panel ([1]; Leukemia subpanel): 3.16 to 14.45 µM
- TGI [2]: 25.70 µM
- GI50 ([2]; Homo sapiens, T47D): 7.76 µM
- CC50 ([2]; Homo sapiens, T47D): 28.8 µM
- GI50 ([3]; Homo sapiens, SK-MEL-28): 6.16 µM
- CC50 ([3]; Homo sapiens, SK-MEL-28, read-out: LC50): 51.3 µM
- TGI ([3]; SK-MEL-28, Melanoma): 20.41 µM
- TGI [4]: 19.95 µM
- GI50 ([4]; Homo sapiens): 7.58 µM
- CC50 ([4]; Homo sapiens): 44.7 µM
- TGI ([5]; HT29, Colon cancer): 15.13 µM
- GI50 ([5]; Homo sapiens, HT-29): 4.67 µM
- CC50 ([5]; Homo sapiens, HT-29, read-out: LC50): 38.9 µM
- TGI ([6]; BT-549, Breast Cancer): 8.51 µM
- GI50 ([6]; Homo sapiens, BT-549): 2.34 µM
- CC50 ([6]; Homo sapiens, BT-549, read-out: LC50): 35.5 µM
- GI50 ([7]; Homo sapiens): 1.38 µM
- CC50 ([7]; Homo sapiens, read-out: LC50): 17.4 µM
- TGI ([7]; Leukemia): 4.07 µM
- TGI ([8]; HCT-15, Colon cancer): 21.37 µM
- GI50 ([8]; Homo sapiens, HCT-15): 9.33 µM
- CC50 ([8]; Homo sapiens, HCT-15, read-out: LC50): 45.7 µM
- GI50 ([9]; Homo sapiens, TK-10): 7.58 µM
- CC50 ([9]; Homo sapiens, TK-10, read-out: LC50): 35.5 µM
- TGI ([9]; TK-10, Renal Cancer): 20.41 µM
- TGI ([10]; HOP-62, NSCLC): 16.59 µM
- GI50 ([10]; Homo sapiens, HOP-62): 4.67 µM
- CC50 ([10]; Homo sapiens, HOP-62, read-out: LC50): 42.6 µM
- GI50 [11, 23]: 5.37 µM
- GI50 [11, 24]: 1.62 to 12.6 µM
- CC50 [11, 25]: 40.5 µM
- CC50 [11, 26]: 28.8 to 50.1 µM
- TGI, panel MG_MID ([11]; Renal Cancer subpanel): 16.40 µM
- TGI, values range inside panel ([11]; Renal Cancer subpanel): 8.12 to 25.11 µM
- activity at 10 µM ([12]; Homo sapiens, 60 cell lines assay in one dose, 10 μM, 48 h, read-out: Mean Growth, %): 29%
- activity at 10 µM ([12]; Homo sapiens, 60 cell lines assay in one dose, 10 μM, 48 h, read-out: Range of Growth, %): -48 to 122%
- GI50 ([12]; Homo sapiens, full panel average): 3.54 µM
- CC50 ([12]; Homo sapiens, full panel average, read-out: LC50, Total MG_MID): 37.1 µM
- TGI, Total MG_MID ([12]; full panel average): 12.88 µM
- Positive Cytostatic Effect ([12]; one dose, 10 μM): 30/57
- Positive Cytotoxic Effect ([12]; one dose, 10 μM, ratio of number of cell lines with percent growth of <0 to total number of cell lines): 12/57

Compound: Ethyl(Z)-4-(3-(4-chloro-2-((6-oxothiazolo[3,2-b][1,2,4]triazol-5(6H)-ylidene)methyl)phenyl)propanamido)benzoate [Compound 2i]
- CC50 [13]: 36.3 µM
- CC50 [14]: 42.6 to 77.6 µM
- TGI, panel MG_MID ([1]; Leukemia subpanel): 51.55 µM
- GI50 ([1]; read-out: GI50, panel MG_MID, Leukemia subpanel): 11.3 µM
- GI50 ([1]; read-out: GI50, values range inside panel, Leukemia subpanel): 2.88 to 18.2 µM
- GI50 [2]: 11 µM
- TGI [2]: 38.01 µM
- CC50 [2]: 41.7 µM
- CC50 [15]: > 100 µM
- CC50 [16]: 51.3 µM
- GI50 ([3]; SK-MEL-28, Melanoma): 12 µM
- TGI ([3]; SK-MEL-28, Melanoma): 23.98 µM
- CC50 [17]: 51.3 µM
- CC50 [18]: 55 µM
- CC50 [19]: 72.4 µM
- GI50 [4]: 14.8 µM
- TGI [4]: 31.62 µM
- CC50 [4]: 67.6 µM
- CC50 [20]: > 100 µM
- GI50 ([5]; HT29, Colon cancer): 12 µM
- TGI ([5]; HT29, Colon cancer): 24.54 µM
- CC50 [21]: 49 µM
- GI50 ([6]; BT-549, Breast Cancer): 3.8 µM
- TGI ([6]; BT-549, Breast Cancer): 15.84 µM
- CC50 [22]: 42.6 µM
- GI50 ([7]; Leukemia): 11 µM
- TGI ([7]; Leukemia): 79.43 µM
- GI50 ([8]; HCT-15, Colon cancer): 13.8 µM
- TGI ([8]; HCT-15, Colon cancer): 27.54 µM
- GI50 ([9]; TK-10, Renal Cancer): 16.2 µM
- TGI ([9]; TK-10, Renal Cancer): 29.51 µM
- GI50 ([10]; HOP-62, NSCLC): 13.2 µM
- TGI ([10]; HOP-62, NSCLC): 26.91 µM
- TGI, panel MG_MID ([11]; Renal Cancer subpanel): 27.13 µM
- TGI, values range inside panel ([11]; Renal Cancer subpanel): 21.37 to 31.62 µM
- GI50 ([11]; read-out: GI50, panel MG_MID, Renal Cancer subpanel): 13 µM
- GI50 ([11]; read-out: GI50, values range inside panel, Renal Cancer subpanel): 5.75 to 17.4 µM
- CC50 ([11]; read-out: LC50, values range inside panel, Renal Cancer subpanel): 51.3 to 58.9 µM
- Mean Growth, % [12, 27]: 61.05%
- Range of Growth, % [12, 27]: −22.54 to 122.94%
- TGI, Total MG_MID ([12]; full panel average): 28.18 µM
- GI50 ([12]; full panel average): 11 µM
- Positive Cytostatic Effect ([12]; one dose, 10 μM): 17/58
